Measurements published in PubChem BioAssay AID2060604 (Molecular Pharmacology Branch, DTP, NCI, 2025).
Blank lines part the entries; values can stand above or below the molecule they belong to.

Test system: 379773-124-R-J2-PDC complex spheroids, viability % test/control
Experiment: Anticancer human tumor 379773-124-R-J2-PDC patient-derived endometrial carcinoma cell line growth inhibition [CLK]
Conditions: for IC50: curve of first compound; for viability, T/C: stronger effect = lower value
Outline: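 Patient-derived tumor cells grown as complex spheroids with HUVEC endothelial cells and mesenchymal stem cells, treated with drug combinations. Concentrations descend in half-log steps from near clinical Cmax, or from 10 microM if Cmax unknown.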

[1] = second compound 0.0316 µM, first compound 0.0316 µM
[2] = second compound 0.0316 µM, first compound 0.1 µM
[3] = second compound 0.0316 µM, first compound 0.316 µM
[4] = second compound 0.0316 µM, first compound 1 µM
[5] = second compound 0.0316 µM, first compound 3.16 µM
[6] = second compound 0.0316 µM, first compound 10 µM
[7] = second compound 0.1 µM, first compound 0.0316 µM
[8] = second compound 0.1 µM, first compound 0.1 µM
[9] = second compound 0.1 µM, first compound 0.316 µM
[10] = second compound 0.1 µM, first compound 1 µM
[11] = second compound 0.1 µM, first compound 3.16 µM
[12] = second compound 0.1 µM, first compound 10 µM
[13] = second compound 0.316 µM, first compound 0.0316 µM
[14] = second compound 0.316 µM, first compound 0.1 µM
[15] = second compound 0.316 µM, first compound 0.316 µM
[16] = second compound 0.316 µM, first compound 1 µM
[17] = second compound 0.316 µM, first compound 3.16 µM
[18] = second compound 0.316 µM, first compound 10 µM
[19] = second compound 1 µM, first compound 0.0316 µM
[20] = second compound 1 µM, first compound 0.1 µM
[21] = second compound 1 µM, first compound 0.316 µM
[22] = second compound 1 µM, first compound 1 µM
[23] = second compound 1 µM, first compound 3.16 µM
[24] = second compound 1 µM, first compound 10 µM
[25] = second compound 3.16 µM, first compound 0.0316 µM
[26] = second compound 3.16 µM, first compound 0.1 µM
[27] = second compound 3.16 µM, first compound 0.316 µM
[28] = second compound 3.16 µM, first compound 1 µM
[29] = second compound 3.16 µM, first compound 3.16 µM
[30] = second compound 3.16 µM, first compound 10 µM
[31] = second compound 10 µM, first compound 0.0316 µM
[32] = second compound 10 µM, first compound 0.1 µM
[33] = second compound 10 µM, first compound 0.316 µM
[34] = second compound 10 µM, first compound 1 µM
[35] = second compound 10 µM, first compound 3.16 µM
[36] = second compound 10 µM, first compound 10 µM
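Further: compound exposure lasted seven days before the viability readout.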
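Wherever viability, T/C is given: 100% = DMSO vehicle control wells.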

Structure (SMILES): CC(Nc1ccc2c(c1)OCCn1cc(N3C(=O)OCC3C(F)F)nc1-2)C(N)=O (centres undefined) + CN1CCN(c2cc(C(=O)Nc3cc4cc(-c5cnn(C)c5)ccc4cn3)ccn2)CC1
IC50 (second compound 0.0316 µM): > 10000 nM
IC50 (second compound 0.1 µM): 8870 nM
IC50 (second compound 0.316 µM): < 31.6 nM
IC50 (second compound 1 µM): < 31.6 nM
IC50 (second compound 3.16 µM): < 31.6 nM
IC50 (second compound 10 µM): < 31.6 nM
viability, T/C [1]: 85.2%
viability, T/C [2]: 89.8%
viability, T/C [3]: 69.3%
viability, T/C [4]: 89.3%
viability, T/C [5]: 68.6%
viability, T/C [6]: 62.5%
viability, T/C [7]: 92.4%
viability, T/C [8]: 81.8%
viability, T/C [9]: 87.2%
viability, T/C [10]: 68.9%
viability, T/C [11]: 84.2%
viability, T/C [12]: 46.2%
viability, T/C [13]: 19.4%
viability, T/C [14]: 22.5%
viability, T/C [15]: 21.1%
viability, T/C [16]: 18.9%
viability, T/C [17]: 22.9%
viability, T/C [18]: 11.4%
viability, T/C [19]: 0.15%
viability, T/C [20]: 0.14%
viability, T/C [21]: 0.75%
viability, T/C [22]: 0.56%
viability, T/C [23]: 0.08%
viability, T/C [24]: 0.1%
viability, T/C [25]: 0.84%
viability, T/C [26]: 0.13%
viability, T/C [27]: 0.14%
viability, T/C [28]: 0.52%
viability, T/C [29]: 0.43%
viability, T/C [30]: 0.48%
viability, T/C [31]: 0.1%
viability, T/C [32]: 0.12%
viability, T/C [33]: 0.71%
viability, T/C [34]: 1.07%
viability, T/C [35]: 0.4%
viability, T/C [36]: 0.19%

IC50 (second compound 0.0316 µM): 8070 nM
IC50 (second compound 0.1 µM): < 31.6 nM
IC50 (second compound 0.316 µM): < 31.6 nM
IC50 (second compound 1 µM): < 31.6 nM
IC50 (second compound 3.16 µM): < 31.6 nM
IC50 (second compound 10 µM): < 31.6 nM
Structure (SMILES): CCCS(=O)(=O)Nc1ccc(F)c(C(=O)c2c[nH]c3ncc(-c4ccc(Cl)cc4)cc23)c1F + CNC(=O)c1ccc(Nc2nc(OC3CCCC3)c3c(-c4ccc5nc(C)oc5c4)c[nH]c3n2)c(OC)c1
viability, T/C [1]: 74.1%
viability, T/C [2]: 81.7%
viability, T/C [3]: 82.3%
viability, T/C [4]: 91.5%
viability, T/C [5]: 72.3%
viability, T/C [6]: 44.9%
viability, T/C [7]: 42%
viability, T/C [8]: 39%
viability, T/C [9]: 34.4%
viability, T/C [10]: 41.1%
viability, T/C [11]: 38%
viability, T/C [12]: 17.4%
viability, T/C [13]: 39.5%
viability, T/C [14]: 30.1%
viability, T/C [15]: 39%
viability, T/C [16]: 38.6%
viability, T/C [17]: 39.8%
viability, T/C [18]: 22.2%
viability, T/C [19]: 38.7%
viability, T/C [20]: 35.2%
viability, T/C [21]: 31%
viability, T/C [22]: 31.6%
viability, T/C [23]: 35.8%
viability, T/C [24]: 19%
viability, T/C [25]: 35%
viability, T/C [26]: 36.7%
viability, T/C [27]: 35.7%
viability, T/C [28]: 32.3%
viability, T/C [29]: 32.4%
viability, T/C [30]: 18.2%
viability, T/C [31]: 33.5%
viability, T/C [32]: 27.9%
viability, T/C [33]: 29.6%
viability, T/C [34]: 39.1%
viability, T/C [35]: 40.4%
viability, T/C [36]: 13.2%
